Measurements taken from article PMC11058275, “Targeted potent antimicrobial and antitumor oxygen-heterocyclic-based pyran analogues: synthesis and computational studies” (Scientific Reports, 2024).
Like-named read-outs stand apart in the source and are kept apart here.

How the values were obtained:
[1] = tested on: WI-38 (human diploid fibroblasts); assay: MTT cytotoxicity assay, normal cells; type: cell-based; details: read-out: IC50 Normotoxicity WI-38
Description: (§3) The antiproliferative activity of the newly synthesized 1H-benzo[f]chromenes derivatives (4a-q) was examined in three human cancer cell lines: MCF-7 (breast cancer), HCT-116 (human colon cancer), and HepG-2 (hepatocellular carcinoma), as well as the two normal cell lines, HFL-1 (human foetal lung) and WI-38 (human diploid fibroblasts), using the 3-(4,5-dimethylthiazol-2-yl)-2,5-diphenyl tetrazolium bromide (MTT) colorimetric assay[56].
(§4) Compounds 4a-q was initially evaluated for in vitro antitumor activity against three different human cell lines: MCF-7, HCT-116 and HepG-2. In-vitro cytotoxicity evaluation was performed at the Regional Center for Mycology & Biotechnology (RCMP), Al-Azhar University under different concentrations (50, 25, 12.5, 6.25, 3.125, 1.56 and 0 µg/mL); vinblastine and doxorubicin are used as reference cytotoxic compounds.

MCF-7 (breast cancer) = assay: MTT cytotoxicity assay; details: Homo sapiens
Description: as §3, §4

[2] = tested on: HCT-116 (human colon cancer); assay: MTT cytotoxicity assay; type: cell-based
Description: as §3, §4

[3] = tested on: Escherichia coli (ATCC 8739); assay: Agar diffusion antibacterial screening (inhibition zone); type: cell-based; details: ATCC8739, E. coli, 1 mg/mL, Mueller–Hinton agar, read-out: Diameter of inhibition zone
Description: (§1) The antibacterial activity of β-enamionitriles (4a-q) was screened using Mueller–Hinton agar medium for bacteria in an agar diffusion methodology. Ciprofloxacin (1 mg/mL) was the reference antibiotic drug used in the analysis of collections that included four gram-positive species of multi drug resistant pathogenic bacteria: Staphylococcus aureus (MRSA) (ATCC 6539), Staphylococcus aureus (ATCC 6538), Bacillus cereus (ATCC 10987), Bacillus subtilis (ATCC 6633), and two gram-negative species of multi drug resistant pathogenic bacteria Klebsiella pneumonia (ATCC 13883) and Escherichia coli (ATCC 8739). […] Using a 1 mg/mL concentration of compounds (4a-q), the minimum zone of inhibition (IZ, the area around the antimicrobial agent where bacterial growth is prevented) was established in mm ± standard deviation beyond the well diameter (6 mm). […] The synthetic compound's inhibitory effects on evaluation against these organisms are depicted in Fig. 9 and Table 1.
(§2) Compound 4a-q was screened for its in vitro antimicrobial activities against pathogenic bacteria species using the standard antibiotics Ampicillin, Gentamycin and Ketoconazole as reference drugs as reported previously. The minimum inhibitory concentration (MIC) was determined as previously reported. The antimicrobial activities were performed at the Regional Centre for Mycology & Biotechnology (RCMP), Al-Azhar University.

[4] = tested on: Bacillus cereus (ATCC 10987); assay: as above; type: cell-based; details: ATCC10987, B. cereus, 1 mg/mL, Mueller–Hinton agar, read-out: Diameter of inhibition zone
Description: as §1, §2

[5] = tested on: Bacillus subtilis (ATCC 6633); assay: as above; type: cell-based; details: ATCC6633, B. subtilis, 1 mg/mL, Mueller–Hinton agar, read-out: Diameter of inhibition zone
Description: as §1, §2

[6] = tested on: Staphylococcus aureus (MRSA) (ATCC 6539); assay: as above; type: cell-based; details: read-out: Diameter of inhibition zone
Description: as §1, §2

[7] = tested on: Klebsiella pneumonia (ATCC 13883); assay: as above; type: cell-based; details: Klebsiella pneumoniae, ATCC13883, K. pneumonia, 1 mg/mL, Mueller–Hinton agar, read-out: Diameter of inhibition zone
Description: as §1, §2

[8] = tested on: Staphylococcus aureus (ATCC 6538); assay: as above; type: cell-based; details: ATCC6538, S. aureus, 1 mg/mL, Mueller–Hinton agar, read-out: Diameter of inhibition zone
Description: as §1, §2

[9] = tested on: HFL-1 (human foetal lung); assay: MTT cytotoxicity assay, normal cells; type: cell-based; details: read-out: IC50 Normotoxicity HFL-1
Description: as §3, §4

[10] = tested on: HepG-2 (hepatocellular carcinoma); assay: MTT cytotoxicity assay; type: cell-based; details: Homo sapiens
Description: as §3, §4

[11] = WI-38 normal cells, MTT, 24-h incubation, mean ± standard error
[12] = MCF7, 24 h, read-out: IC50 Cancerotoxicity MCF-7
[13] = MTT, 24-h incubation, mean ± standard error, read-out: IC50 Cancerotoxicity HCT-116
[14] = given in µg/mL, read-out: IC50 HCT-116
[15] = HFL1, HFL-1 normal cells, MTT, 24-h incubation, mean ± standard error
[16] = HepG2, MTT, 24-h incubation, mean ± standard error, read-out: IC50 Cancerotoxicity HepG-2
[17] = HepG2, given in µg/mL, read-out: IC50 HepG-2

SMILES	IC50 [1, 11]	IC50 (MCF-7 (breast cancer); [12])	IC50 (MCF-7 (breast cancer); MCF7, read-out: IC50 MCF-7)	IC50 [2, 13]	IC50 [2, 14]	zone of inhibition at 1000 µg/mL [3]	zone of inhibition at 1000 µg/mL [4]	zone of inhibition at 1000 µg/mL [5]	zone of inhibition at 1000 µg/mL [6]	zone of inhibition at 1000 µg/mL [7]	zone of inhibition at 1000 µg/mL [8]	IC50 [9, 15]	melting point	IC50 [10, 16]	IC50 [10, 17]	IC50 ([1]; WI-38, 24 h)	IC50 ([9]; HFL1, 24 h)
COc1ccc2c3c(ccc2c1)OC(N)=C(C#N)C3c1cc(Br)cc(Br)c1OC (stereo not shown) [Compound 4n, 3-amino-1-(3,5-dibromo-2-methoxyphenyl)-8-methoxy-1H-benzo[f]chromene-2-carbonitrile]	135.4 ± 0.3 µM	1.4 ± 0.05 µM	0.7 ± 0.05 µg/mL	1.2 ± 0.06 µM	0.6 ± 0.06 µg/mL	0 mm	13 mm	0 mm	14 mm	11 mm	0 mm	139.5 ± 0.1 µM	241 to 242 °C	5.6 ± 0.21 µM	2.9 ± 0.21 µg/mL		
COc1ccc2c3c(ccc2c1)OC(N)=C(C#N)C3c1ccccc1Cl (stereo not shown) [Compound 4b, 3-Amino-1-(2-chlorophenyl)-8-methoxy-1H-benzo[f]chromene-2-carbonitrile]	171 ± 0.2 µM	3.9 ± 0.18 µM		8.6 ± 0.25 µM		12 mm	14 mm	0 mm	13 mm	13 mm	0 mm	198.6 ± 0.1 µM	265 to 266 °C	6.1 ± 0.2 µM			
COc1ccc2c3c(ccc2c1)OC(N)=C(C#N)C3c1cc(OC)c(OC)c(OC)c1 (stereo not shown) [Compound 4p, 3-amino-1-(3,4,5-trimethoxyphenyl)-8-methoxy-1H-benzo[f]chromene-2-carbonitrile]		114.4 ± 0.03 µM		91.4 ± 0.01 µM		11 mm	15 mm	0 mm	13 mm	12 mm	11 mm		258 to 259 °C	106.5 ± 0.1 µM			
COc1ccc2c3c(ccc2c1)OC(N)=C(C#N)C3c1cc(Cl)ccc1Cl (stereo not shown) [Compound 4k, 3-Amino-1-(2,5-dichlorophenyl)-8-methoxy-1H-benzo[f]chromene-2-carbonitrile]		6.6 ± 0.4 µM		2.5 ± 0.23 µM		13 mm	0 mm	0 mm	12 mm	15 mm	0 mm		270 to 271 °C	1.8 ± 0.03 µM			
COc1ccc2c3c(ccc2c1)OC(N)=C(C#N)C3c1c(F)cccc1F (stereo not shown) [Compound 4h, 3-Amino-1-(2,6-difluorophenyl)-8-methoxy-1H-benzo[f]chromene-2-carbonitrile]		60.2 ± 0.3 µM		33.8 ± 0.12 µM		0 mm	9 mm	0 mm	13 mm	10 mm	9 mm		295 to 296 °C	48.1 ± 0.2 µM			
COc1ccc2c3c(ccc2c1)OC(N)=C(C#N)C3c1cc(Cl)cc(Cl)c1Cl (stereo not shown) [Compound 4q, 3-amino-1-(2,3,5-trichlorophenyl)-8-methoxy-1H-benzo[f]chromene-2-carbonitrile]		110.4 ± 0.1 µM		107 ± 1.6 µM		12 mm	13 mm	10 mm	13 mm	13 mm	10 mm		259 to 260 °C	76.5 ± 0.9 µM			
COc1ccc2c3c(ccc2c1)OC(N)=C(C#N)C3c1ccc(Cl)cc1Cl (stereo not shown) [Compound 4j, 3-Amino-1-(2,4-dichlorophenyl)-8-methoxy-1H-benzo[f]chromene-2-carbonitrile]	177.8 ± 0.3 µM	2 ± 0.02 µM		5.8 ± 0.16 µM		12 mm	8 mm	0 mm	13 mm	14 mm	0 mm	180.8 ± 0.3 µM	285 to 286 °C	14.1 ± 0.18 µM			
COc1ccc2c3c(ccc2c1)OC(N)=C(C#N)C3c1ccc(OC)c(OC)c1OC (stereo not shown) [Compound 4o, 3-amino-1-(2,3,4-trimethoxyphenyl)-8-methoxy-1H-benzo[f]chromene-2-carbonitrile]		55.3 ± 0.01 µM		35.9 ± 0.02 µM		12 mm	14 mm	0 mm	12 mm	11 mm	10 mm		240 to 241 °C	17.6 ± 0.05 µM			
COc1ccc2c3c(ccc2c1)OC(N)=C(C#N)C3c1cccc(Cl)c1Cl (stereo not shown) [Compound 4i, 3-Amino-1-(2,3-dichlorophenyl)-8-methoxy-1H-benzo[f]chromene-2-carbonitrile]	160.1 ± 0.2 µM	2.3 ± 0.01 µM	0.9 ± 0.01 µg/mL	3.5 ± 0.15 µM	1.4 ± 0.15 µg/mL	0 mm	8 mm	0 mm	13 mm	14 mm	0 mm	154.5 ± 0.1 µM	256 to 257 °C	2.8 ± 0.17 µM	11.1 ± 0.17 µg/mL		
C#Cc1cccc(Nc2ncnc3cc(OCCOC)c(OCCOC)cc23)c1 [Erlotinib, N-(3-ethynylphenyl)-6,7-bis(2-methoxyethoxy)-4-quinazolinamine, reference compound]																28.5 ± 0.2 µM	14 ± 1.2 µM
COc1ccc2c3c(ccc2c1)OC(N)=C(C#N)C3c1c(Cl)cccc1Cl (stereo not shown) [Compound 4l]		12.1 ± 0.06 µM		21.3 ± 0.01 µM		0 mm	8 mm	0 mm	13 mm	14 mm	0 mm		313 to 314 °C	2.3 ± 0.02 µM			
COc1ccc2c3c(ccc2c1)OC(N)=C(C#N)C3c1cccc(Cl)c1 (stereo not shown) [Compound 4c, 3-Amino-1-(3-chlorophenyl)-8-methoxy-1H-benzo[f]chromene-2-carbonitrile]	214.1 ± 0.1 µM	3.6 ± 0.14 µM		5.5 ± 0.35 µM		12 mm	17 mm	0 mm	15 mm	13 mm	0 mm	187.6 ± 0.2 µM	216 to 217 °C	3.3 ± 0.5 µM			
COc1ccc2c3c(ccc2c1)OC(N)=C(C#N)C3c1ccc(I)cc1 (stereo not shown) [Compound 4f, 3-Amino-1-(4-iodophenyl)-8-methoxy-1H-benzo[f]chromene-2-carbonitrile]		48.5 ± 0.1 µM		27.8 ± 0.3 µM		0 mm	15 mm	8 mm	12 mm	9 mm	0 mm		227 to 228 °C	39.2 ± 0.2 µM			
O=C(O)c1cn(C2CC2)c2cc(N3CCNCC3)c(F)cc2c1=O [Ciprofloxacin, reference compound]						25 mm	22 mm	0 mm	0 mm	0 mm	0 mm						
N#CC(C#N)=Cc1ccc(Cl)cc1													162 to 163 °C				
